Assay results: patent US12410208B2, “(2-acetamidyl)thio-beta-D-galactopyranoside derivatives” (Idorsia Pharmaceuticals Ltd, priority 2020, dated 2025)
Like-named read-outs stand apart in the source and are kept apart here.

Columns and labels:
[1] = target: biotinylated human Gal-3 (hGal-3) (Homo sapiens, UniProt P17931); assay: Competitive binding assay: biotinylated hGal-3 binding to microplate-adsorbed asialofetuin (ASF), spectrophotometric
Outline: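 Serially diluted compounds competed with asialofetuin on the plate for biotinylated human Gal-3 during a 3 h incubation at 4° C. Streptavidin-peroxidase with ABTS gave the spectrophotometric signal. IC50 values were averaged over repeat runs.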

human Gal-1 (hGal-1) = human Gal-1 (hGal-1) (Homo sapiens, UniProt P09382); assay: Competitive binding assay: biotinylated hGal-1 binding to microplate-adsorbed asialofetuin (ASF), spectrophotometric; conditions: hGal-1 binding to asialofetuin; Table 15; R and S epimers of selected Examples also listed; read-out: IC50 (Galectin-1 inhibition)
Sequence of human Gal-1 (hGal-1) (P09382 whole entry): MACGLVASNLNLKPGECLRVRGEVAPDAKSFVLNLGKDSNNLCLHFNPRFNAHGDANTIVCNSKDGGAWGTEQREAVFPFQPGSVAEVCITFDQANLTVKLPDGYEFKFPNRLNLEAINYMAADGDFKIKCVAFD
Outline: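 Spectrophotometric competition readout with ABTS after streptavidin-peroxidase (80 ng/mL, 1 h, 4 °C) detection of bound biotinylated hGal-1.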

[2] = Gal-3 inhibition, Table 5, read-out: IC50
[3] = Table 8, hGal-3, read-out: IC50 (Gal-3 inhibition)
[4] = Gal-3 inhibition, Table 4, read-out: IC50

Sequence of biotinylated human Gal-3 (hGal-3) (P17931 whole entry): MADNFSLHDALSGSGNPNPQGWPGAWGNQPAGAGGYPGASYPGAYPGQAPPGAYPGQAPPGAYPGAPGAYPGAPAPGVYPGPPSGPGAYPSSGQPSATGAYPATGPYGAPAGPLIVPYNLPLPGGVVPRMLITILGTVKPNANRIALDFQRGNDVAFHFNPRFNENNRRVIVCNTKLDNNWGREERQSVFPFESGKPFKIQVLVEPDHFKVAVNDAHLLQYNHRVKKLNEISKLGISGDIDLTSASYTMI

IC50 [1, 2]	IC50 (human Gal-1 (hGal-1))	IC50 [1, 4]	Molecule	other results
10200 nM	38100 nM		CN(CC(C)(C)F)C(=O)[C@H](S[C@@H]1O[C@H](CO)[C@H](O)[C@H](n2cc(-c3cc(F)c(F)c(F)c3)nn2)[C@H]1O)C1(O)CCCCC1 [Example 2.39.222R., (R)-2-(((2S,3R,4S,5R,6R)-3,5-Dihydroxy-6-(hydroxymethyl)-4-(4-(3,4,5-trifluorophenyl)-1H-1,2,3-triazol-1-yl)tetrahydro-2H-pyran-2-yl)thio)-N-(2-fluoro-2-methylpropyl)-2-(1-hydroxycyclohexyl)-N-methylacetamide]	
	1700 nM		CCN(C)C(=O)[C@@H](S[C@@H]1O[C@H](CO)[C@H](O)[C@H](n2cc(-c3cc(F)c(F)c(F)c3)nn2)[C@H]1OC)C1(O)CCN(C(=O)NC2CC2)CC1 [Example 2.49.226S.I., N-Cyclopropyl-4-((S)-2-(ethyl(methyl)amino)-1-(((2S,3R,4S,5R,6R)-5-hydroxy-6-(hydroxymethyl)-3-methoxy-4-(4-(3,4,5-trifluorophenyl)-1H-1,2,3-triazol-1-yl)tetrahydro-2H-pyran-2-yl)thio)-2-oxoethyl)-4-hydroxypiperidine-1-carboxamide]	IC50 [1, 3]: 60 nM
	> 100000 nM	4100 nM	CN(C)C(=O)[C@H](S[C@@H]1O[C@H](CO)[C@H](O)[C@H](n2cc(-c3cc(F)c(F)c(F)c3)nn2)[C@H]1O)C1(O)CCOCC1 [Example 2.41.201R., (R)-2-(((2S,3R,4S,5R,6R)-3,5-Dihydroxy-6-(hydroxymethyl)-4-(4-(3,4,5-trifluorophenyl)-1H-1,2,3-triazol-1-yl)tetrahydro-2H-pyran-2-yl)thio)-2-(4-hydroxytetrahydro-2H-pyran-4-yl)-N,N-dimethylacetamide]	
	70 nM		CCN(C)C(=O)C(S[C@@H]1O[C@H](CO)[C@H](O)[C@H](n2cc(-c3cc(F)c(F)c(F)c3)nn2)[C@H]1O)C1(O)CCN(S(=O)(=O)C2CC2)CC1 (stereo partly drawn) [Example 2.51.203., 2-(1-(Cyclopropylsulfonyl)-4-hydroxypiperidin-4-yl)-2-(((2S,3R,4S,5R,6R)-3,5-dihydroxy-6-(hydroxymethyl)-4-(4-(3,4,5-trifluorophenyl)-1H-1,2,3-triazol-1-yl)tetrahydro-2H-pyran-2-yl)thio)-N-ethyl-N-methylacetamide]	IC50 [1, 3]: 30 nM
	30 nM		CCN(C)C(=O)C(S[C@@H]1O[C@H](CO)[C@H](O)[C@H](n2cc(-c3cc(F)c(F)c(F)c3)nn2)[C@H]1O)C1(O)CCN(S(C)(=O)=O)CC1 (single isomer, unassigned) [Example 2.47.203S.]	IC50 [1, 3]: 10 nM
	220 nM	90 nM	O=C(C(S[C@@H]1O[C@H](CO)[C@H](O)[C@H](n2cc(-c3cc(F)c(F)c(F)c3)nn2)[C@H]1O)C1(O)CCOCC1)N1CCCCC1 (stereo partly drawn) [Example 2.41.208., 2-(((2S,3R,4S,5R,6R)-3,5-Dihydroxy-6-(hydroxymethyl)-4-(4-(3,4,5-trifluorophenyl)-1H-1,2,3-triazol-1-yl)tetrahydro-2H-pyran-2-yl)thio)-2-(4-hydroxytetrahydro-2H-pyran-4-yl)-1-(piperidin-1-yl)ethan-1-one]	
30 nM	20 nM		CN(C(=O)C(S[C@@H]1O[C@H](CO)[C@H](O)[C@H](n2cc(-c3cc(F)c(F)c(F)c3)nn2)[C@H]1O)C1(O)CCCC1)C1CCC1 (stereo partly drawn) [Example 2.38.220., N-Cyclobutyl-2-(((2S,3R,4S,5R,6R)-3,5-dihydroxy-6-(hydroxymethyl)-4-(4-(3,4,5-trifluorophenyl)-1H-1,2,3-triazol-1-yl)tetrahydro-2H-pyran-2-yl)thio)-2-(1-hydroxycyclopentyl)-N-methylacetamide]	
	190 nM	80 nM	2-(((2S,3R,4S,5R,6R)-3,5-Dihydroxy-6-(hydroxymethyl)-4-(4-(3,4,5-trifluorophenyl)-1H-1,2,3-triazol-1-yl)tetrahydro-2H-pyran-2-yl)thio)-2-(4-hydroxy-1-methylpiperidin-4-yl)-N-isobutyl-N-methylacetamide [Example 2.40.200.]	
	51500 nM	8230 nM	CN(Cc1ccccc1)C(=O)[C@H](S[C@@H]1O[C@H](CO)[C@H](O)[C@H](n2cc(-c3cc(F)c(F)c(F)c3)nn2)[C@H]1O)C1(O)CCOCC1 [Example 2.41.207R., (R)-N-Benzyl-2-(((2S,3R,4S,5R,6R)-3,5-dihydroxy-6-(hydroxymethyl)-4-(4-(3,4,5-trifluorophenyl)-1H-1,2,3-triazol-1-yl)tetrahydro-2H-pyran-2-yl)thio)-2-(4-hydroxytetrahydro-2H-pyran-4-yl)-N-methylacetamide]	
	110 nM	20 nM	CN(CCC1CCOCC1)C(=O)[C@@H](S[C@@H]1O[C@H](CO)[C@H](O)[C@H](n2cc(-c3cc(F)c(F)c(F)c3)nn2)[C@H]1O)C1(O)CCOCC1 [Example 2.41.216S., (S)-2-(((2S,3R,4S,5R,6R)-3,5-Dihydroxy-6-(hydroxymethyl)-4-(4-(3,4,5-trifluorophenyl)-1H-1,2,3-triazol-1-yl)tetrahydro-2H-pyran-2-yl)thio)-2-(4-hydroxytetrahydro-2H-pyran-4-yl)-N-methyl-N-(2-(tetrahydro-2H-pyran-4-yl)ethyl)acetamide]	
	20 nM		CCN(C(=O)C(S[C@@H]1O[C@H](CO)[C@H](O)[C@H](n2cc(-c3cc(F)c(F)c(F)c3)nn2)[C@H]1O)C1(O)CCOCC1)C1CCC1 (some centres unmarked) [Example 2.41.237.]	IC50 ([1]; Table 10, hGal-3, read-out: IC50 (Gal-3 inhibition)): 30 nM
	1500 nM	260 nM	O=C(C(S[C@@H]1O[C@H](CO)[C@H](O)[C@H](n2cc(-c3cc(F)c(F)c(F)c3)nn2)[C@H]1O)C1(O)CCOCC1)N1CCC1 (stereo partly drawn) [Example 2.41.206., 1-(Azetidin-1-yl)-2-(((2S,3R,4S,5R,6R)-3,5-dihydroxy-6-(hydroxymethyl)-4-(4-(3,4,5-trifluorophenyl)-1H-1,2,3-triazol-1-yl)tetrahydro-2H-pyran-2-yl)thio)-2-(4-hydroxytetrahydro-2H-pyran-4-yl)ethan-1-one]	
40 nM	180 nM		CN(C)C(=O)C(S[C@@H]1O[C@H](CO)[C@H](O)[C@H](n2cc(-c3cc(F)c(F)c(F)c3)nn2)[C@H]1O)C1(O)CCC(F)(F)CC1 (single isomer, unassigned) [Example 2.44.201S.]	
140 nM	140 nM		O=C([C@@H](S[C@@H]1O[C@H](CO)[C@H](O)[C@H](n2cc(-c3cc(F)c(F)c(F)c3)nn2)[C@H]1O)C1(O)CCC1)N1CCCCC1 [Example 2.34.208S., (S)-2-(((2S,3R,4S,5R,6R)-3,5-Dihydroxy-6-(hydroxymethyl)-4-(4-(3,4,5-trifluorophenyl)-1H-1,2,3-triazol-1-yl)tetrahydro-2H-pyran-2-yl)thio)-2-(1-hydroxycyclobutyl)-1-(piperidin-1-yl)ethan-1-one]	
30 nM	67 nM		CCN(C)C(=O)[C@@H](S[C@@H]1O[C@H](CO)[C@H](O)[C@H](n2cc(-c3cc(F)c(F)c(F)c3)nn2)[C@H]1O)C1(O)CCOCC1 [Example 2.41.203S., (S)-2-(((2S,3R,4S,5R,6R)-3,5-Dihydroxy-6-(hydroxymethyl)-4-(4-(3,4,5-trifluorophenyl)-1H-1,2,3-triazol-1-yl)tetrahydro-2H-pyran-2-yl)thio)-N-ethyl-2-(4-hydroxytetrahydro-2H-pyran-4-yl)-N-methylacetamide]	
110 nM	120 nM		CN(CC(F)(F)F)C(=O)[C@@H](S[C@@H]1O[C@H](CO)[C@H](O)[C@H](n2cc(-c3cc(F)c(F)c(F)c3)nn2)[C@H]1O)C1(O)CCC1 [Example 2.34.219S., (S)-2-(((2S,3R,4S,5R,6R)-3,5-Dihydroxy-6-(hydroxymethyl)-4-(4-(3,4,5-trifluorophenyl)-1H-1,2,3-triazol-1-yl)tetrahydro-2H-pyran-2-yl)thio)-2-(1-hydroxycyclobutyl)-N-methyl-N-(2,2,2-trifluoroethyl)acetamide]	
	35900 nM		CCN(C)C(=O)C(S[C@@H]1O[C@H](CO)[C@H](O)[C@H](n2cc(-c3cc(F)c(F)c(F)c3)nn2)[C@H]1O)C(C)C (stereo partly drawn) [Example 2.53.203., 2-(((2S,3R,4S,5R,6R)-3,5-dihydroxy-6-(hydroxymethyl)-4-(4-(3,4,5-trifluorophenyl)-1H-1,2,3-triazol-1-yl)tetrahydro-2H-pyran-2-yl)thio)-N-ethyl-N,3-dimethylbutanamide, reference compound]	IC50 ([1]; Gal-3 inhibition, Table 1 (Reference Examples), read-out: IC50): 7800 nM
	550 nM	120 nM	CC1CN(C(=O)[C@@H](S[C@@H]2O[C@H](CO)[C@H](O)[C@H](n3cc(-c4cc(F)c(F)c(F)c4)nn3)[C@H]2O)C2(O)CCOCC2)C1 [Example 2.41.205S., (S)-2-(((2S,3R,4S,5R,6R)-3,5-Dihydroxy-6-(hydroxymethyl)-4-(4-(3,4,5-trifluorophenyl)-1H-1,2,3-triazol-1-yl)tetrahydro-2H-pyran-2-yl)thio)-2-(4-hydroxytetrahydro-2H-pyran-4-yl)-1-(3-methylazetidin-1-yl)ethan-1-one]	
	110 nM		CO[C@@H]1[C@@H](n2cc(-c3cc(F)c(F)c(F)c3)nn2)[C@@H](O)[C@@H](CO)O[C@H]1SC(C(=O)N(C)CCC1CC1)C1(O)CCC(F)(F)CC1 (stereo partly drawn) [Example 2.44.217.I., N-(2-Cyclopropylethyl)-2-(4,4-difluoro-1-hydroxycyclohexyl)-2-(((2S,3R,4S,5R,6R)-5-hydroxy-6-(hydroxymethyl)-3-methoxy-4-(4-(3,4,5-trifluorophenyl)-1H-1,2,3-triazol-1-yl)tetrahydro-2H-pyran-2-yl)thio)-N-methylacetamide]	IC50 ([1]; Table 12, hGal-3, read-out: IC50 (Gal-3 inhibition)): 50 nM
